Data from paper PMC10247784, “Physiological activation of human and mouse bitter taste receptors by bile acids” (Communications Biology, 2023).

Target: T1, mouse Tas2r108 (Mus musculus, UniProt Q9JKT3)
T1 construct: expressed in transfected cells; host or cells: HEK293T-Gα16gust44
T1 sequence (Q9JKT3 1-297): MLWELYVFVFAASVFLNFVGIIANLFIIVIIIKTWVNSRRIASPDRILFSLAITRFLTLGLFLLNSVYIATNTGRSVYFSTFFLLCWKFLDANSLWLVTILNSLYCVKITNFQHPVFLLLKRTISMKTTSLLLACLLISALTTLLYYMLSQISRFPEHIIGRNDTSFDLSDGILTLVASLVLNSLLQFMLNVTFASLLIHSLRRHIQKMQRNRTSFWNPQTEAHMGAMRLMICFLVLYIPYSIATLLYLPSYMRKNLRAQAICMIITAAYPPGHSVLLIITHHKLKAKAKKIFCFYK
Assay: Calcium imaging assay (FLIPR), HEK293T-Gα16gust44 cells transfected with mouse Tas2r108
Assay type: cell-based
Conditions: for Δ F/F: Tas2r108
Method: This set of bile acids was chosen because of their commercial availability in high purities, their diversity within the class of bile acids and their previous detection and quantitation in human blood. Stock solutions were prepared in DMSO.
As basal growth medium for the HEK293T-Gα16gust44 cell line[17],[59] served Dulbecco’s modified eagle medium (DMEM) (Thermo Fisher Scientific, Darmstadt, Germany) supplemented with 10 % fetal bovine serum (Sigma-Aldrich, Steinheim, Germany), 2 mM L-glutamine (Sigma-Aldrich, Steinheim, Germany), 100 units/ml penicillin (Sigma Aldrich, Steinheim, Germany) and 100 µg/ml streptomycin (Sigma Aldrich, Steinheim, Germany). Growth conditions were 37 °C, 5 % CO2 and saturated air-humidity[60].
HEK293T-Gα16gust44 cells were seeded on poly-D-lysine (10 µg/ml) coated 96-well plates to reach a confluence of 40-60 % the next day. For transient transfection 150 ng of plasmid DNA containing the receptor of interest and 0.3 µl lipofectamine 2000 (Thermo Fisher Scientific, Darmstadt, Germany) per well were used and transfection took place according to the manual of lipofectamine 2000. […] The empty vector DNA (mock) was transfected as negative control[14],[41].
Cells were loaded using the calcium-sensitive fluorescent dye Fluo-4-AM (Abcam, Cambridge, Great Britain) in the presence of 2.5 mM probenecid (Sigma-Aldrich, Steinheim, Germany) the day after transfection[13],[41]. 1 h after loading, cells were washed with C1 buffer using a BioTek Cell Washer, incubated in the dark for half an hour and washed again. For automated agonist application and measurement of fluorescence changes, a FLIPR^TETRA device (Molecular Devices, San José, United States) was used. Viability of cells was tested by application of 100 nM Somatostatin 14 (Bachem, Bubendorf, Switzerland)[42].
Measured data were negative control corrected by subtracting the signal of the mock-transfected cells and exported to Microsoft Excel using the FLIPR software ScreenWorks 4.2. In Microsoft Excel software, standardization of maximum fluorescence intensities to the basal fluorescence and normalization to the buffer-only control was done to calculate the relative fluorescence changes (ΔF/F).
Initial screening experiments performed in duplicate wells were confirmed by at least one replication and representative traces were selected for display. All dose-response relationships were determined by three independent experiments (biological replicates) performed in duplicates (technical replicates). Threshold concentrations, defined as lowest substance concentrations leading to statistically significant elevated fluorescence changes in receptor-transfected cells compared with empty vector-transfected cells, were determined using SigmaPlot with Student’s t-test to evaluate statistical significance (p < 0.01).

## C[C@H](CCC(=O)NCC(=O)O)[C@H]1CC[C@H]2[C@@H]3[C@H](O)C[C@@H]4C[C@H](O)CC[C@]4(C)[C@H]3C[C@H](O)[C@]12C [Glycocholic Acid, glycocholic acid]
conc. 0,01 mM
  Δ F/F: 0.0107
conc. 0,1 mM
  Δ F/F: 0.0182
conc. 0,03 mM
  Δ F/F: 0.00676
conc. 0,3 mM
  Δ F/F: 0.06222
conc. 0,001 mM
  Δ F/F: 0.002806
conc. 1 mM
  Δ F/F: 0.4313
conc. 0,003 mM
  Δ F/F: 0.003344
Time 0 s
  RLU: 0 RLU
Time 2 s
  RLU: 7.69 RLU
Time 4 s
  RLU: 11.6885 RLU
Time 6 s
  RLU: 14.9144 RLU
Time 8 s
  RLU: 2.856 RLU
Time 12 s
  RLU: -20.1582 RLU
Time 14 s
  RLU: -24.1348 RLU
Time 16 s
  RLU: -22.3266 RLU
Time 18 s
  RLU: -18.1852 RLU
Time 137.562 s
  RLU: 194.213 RLU
Time 143.562 s
  RLU: 209.767 RLU
Time 149.562 s
  RLU: 181.475 RLU
Time 155.562 s
  RLU: 183.974 RLU
Time 161.562 s
  RLU: 173.161 RLU
Time 167.562 s
  RLU: 179.231 RLU
Time 173.562 s
  RLU: 187.201 RLU
Time 179.562 s
  RLU: 174.25 RLU
Time 185.562 s
  RLU: 178.039 RLU
Time 191.562 s
  RLU: 190.798 RLU
Time 197.562 s
  RLU: 173.368 RLU
Time 203.562 s
  RLU: 190.575 RLU
Time 209.562 s
  RLU: 197.772 RLU
Time 215.562 s
  RLU: 163.432 RLU
Time 221.562 s
  RLU: 153.254 RLU
Time 227.562 s
  RLU: 164.71 RLU
Time 233.562 s
  RLU: 163.97 RLU
Time 239.562 s
  RLU: 147.809 RLU
Time 245.562 s
  RLU: 173.351 RLU
Time 293.562 s
  RLU: 149.968 RLU
Time 299.562 s
  RLU: 165.311 RLU
Time 305.562 s
  RLU: 159.539 RLU
Time 311.562 s
  RLU: 142.659 RLU
Time 317.562 s
  RLU: 150.371 RLU
Time 323.562 s
  RLU: 171.186 RLU
Time 329.562 s
  RLU: 175.087 RLU
Time 335.562 s
  RLU: 172.597 RLU
Time 341.562 s
  RLU: 183.065 RLU
Time 347.562 s
  RLU: 201.017 RLU
Time 353.562 s
  RLU: 156.745 RLU
Time 359.562 s
  RLU: 154.549 RLU
P < 0.01 vs empty vector
  Activation threshold concentration Tas2r108: 100 µM
Time 18.797 s
  RLU: -15.9795 RLU
Time 20.797 s
  RLU: -38.1063 RLU
Time 22.797 s
  RLU: -53.0656 RLU
Time 24.797 s
  RLU: -41.093 RLU
Time 26.797 s
  RLU: 10.1284 RLU
Time 28.797 s
  RLU: -11.2259 RLU
Time 30.797 s
  RLU: 42.3249 RLU
Time 32.797 s
  RLU: 14.625 RLU
Time 34.797 s
  RLU: 31.6874 RLU
Time 36.797 s
  RLU: 61.9173 RLU
Time 38.797 s
  RLU: 95.7369 RLU
Time 40.797 s
  RLU: 96.8837 RLU
Time 42.797 s
  RLU: 120.977 RLU
Time 44.797 s
  RLU: 126.004 RLU
Time 46.797 s
  RLU: 150.942 RLU
Time 48.797 s
  RLU: 139.074 RLU
Time 50.797 s
  RLU: 165.429 RLU
Time 52.797 s
  RLU: 178.894 RLU
Time 54.797 s
  RLU: 165.569 RLU
Time 56.797 s
  RLU: 184.08 RLU
Time 58.797 s
  RLU: 203.839 RLU
Time 60.797 s
  RLU: 208.856 RLU
Time 62.797 s
  RLU: 198.008 RLU
Time 64.797 s
  RLU: 192.835 RLU
Time 66.797 s
  RLU: 228.59 RLU
Time 68.797 s
  RLU: 198.902 RLU
Time 70.797 s
  RLU: 190.075 RLU
Time 72.797 s
  RLU: 224.267 RLU
Time 74.797 s
  RLU: 237.802 RLU
Time 76.797 s
  RLU: 195.521 RLU
Time 78.797 s
  RLU: 205.632 RLU
Time 80.797 s
  RLU: 224.221 RLU
Time 82.797 s
  RLU: 233.724 RLU
Time 84.797 s
  RLU: 213.598 RLU
Time 86.797 s
  RLU: 226.297 RLU
Time 88.797 s
  RLU: 230.997 RLU
Time 90.797 s
  RLU: 224.416 RLU
Time 92.797 s
  RLU: 254.391 RLU
Time 94.797 s
  RLU: 247.364 RLU
Time 96.797 s
  RLU: 231.951 RLU
Time 98.797 s
  RLU: 231.597 RLU
Time 100.797 s
  RLU: 210.393 RLU
Time 102.797 s
  RLU: 230.574 RLU
Time 104.797 s
  RLU: 222.002 RLU
Time 106.797 s
  RLU: 222.39 RLU
Time 108.797 s
  RLU: 212.16 RLU
Time 110.797 s
  RLU: 216.252 RLU
Time 112.797 s
  RLU: 216.052 RLU
Time 114.797 s
  RLU: 221.895 RLU
Time 116.797 s
  RLU: 215.342 RLU
Time 118.797 s
  RLU: 209.462 RLU
Time 120.797 s
  RLU: 222.728 RLU
Time 122.797 s
  RLU: 206.205 RLU
Time 124.797 s
  RLU: 193.188 RLU
Time 126.797 s
  RLU: 207.494 RLU
Time 128.797 s
  RLU: 210.082 RLU
Time 130.797 s
  RLU: 216.943 RLU
Time 132.797 s
  RLU: 210.174 RLU
Time 134.797 s
  RLU: 194.975 RLU
Time 136.797 s
  RLU: 218.165 RLU
